Laboratory results taken from patent US8541598B2, “Biodegradable solvents for the chemical industry” (Dublin City University, priority 2007, dated 2013).
Entries after “also recorded” stand apart in the source; their conditions may differ. Like-named read-outs stand apart in the source and are kept apart here.

How the values were obtained:
[1] = Antimicrobial activity / minimum inhibitory concentrations on seven strains of bacteria; type: cell-based; conditions: read-out: MIC values
Procedure: (§1) Seven strains of bacteria were used in the assessment of the antimicrobial activity of the ILs claimed: 4 gram negative and three gram positive as shown below.
(§2) A wide concentration range was tested (0-20000 μg/ml). The concentrations screened for antibacterial activity are generally from 2 μg/ml to 1000 μg/ml (Table 6). […] The concentration range screened for the ILs containing ethers was up to 20000 μg/ml. At these high concentrations a lack of antibacterial activity is a significant result.

[2] = tested on: Pseudomonas aeruginosa, Escherichia coli, Klebsiella sp., Salmonella sp., Staphylococcus aureus, Enterococcus sp., Bacillus subtilis; assay: as above; type: cell-based; conditions: seven strains of bacteria
Procedure: as §1, §2

[3] = seven strains, not split, range tested 0-20000 μg/ml

SMILES	MIC [1, 3] [mg/mL]	toxicity / antibacterial activity in words [2]	MIC [1] [mg/mL]	toxicity / antibacterial activity in words ([2]; listed as KG 15)
COCCOC(=O)C[n+]1ccn(C)c1 [KG36, 3-methyl-1-(2-[2-methoxy]ethoxycarbonylmethyl)imidazolium octylsulfate]	> 20	non-toxic	–	–
COCCN(CCOC)C(=O)C[n+]1ccn(C)c1 [KG405]	> 20	low toxicity; also recorded: non-toxic	–	–
CCCCOCCOC(=O)C[n+]1ccn(C)c1C [KG44]	–	non-toxic	> 20	–
CCCCOCCOCCOC(=O)C[n+]1ccn(C)c1 [KG43, 3-methyl-1-(2-[2-butoxyethoxy]ethoxycarbonylmethyl)imidazolium octylsulfate]	10	non-toxic	–	–
CC(C)OCCOC(=O)Cn1cc[n+](C)c1.[Br-] [KG9, 3-methyl-1-(2-[2-propoxy]ethoxycarbonylmethyl)imidazolium bromide]	> 20	non-toxic	–	–
CCCCOCCOC(=O)C[n+]1ccn(C)c1 [KG39, 3-methyl-1-(2-[2-butoxy]ethoxycarbonylmethyl)imidazolium octylsulfate]	> 20	non-toxic	–	–
CCCOCCOC(=O)C[n+]1ccn(C)c1 [KG38, 3-methyl-1-(2-[2-propoxy]ethoxycarbonylmethyl)imidazolium octylsulfate]	> 20	non-toxic	–	–
COCCOCCOC(=O)C[n+]1ccn(C)c1 [KG40, 3-methyl-1-(2-[2-methoxyethoxy]ethoxycarbonylmethyl)imidazolium octylsulfate]	> 20	non-toxic	–	–
CCOCCOC(=O)Cn1cc[n+](C)c1.[Br-] [KG8, 3-methyl-1-(2-[2-ethoxy]ethoxycarbonylmethyl)imidazolium bromide]	> 20	non-toxic	–	–
CCOCCOCCOC(=O)Cn1cc[n+](C)c1.[Br-] [KG13, 3-methyl-1-(2-[2-ethoxyethoxy]ethoxycarbonylmethyl)imidazolium bromide]	–	non-toxic	> 20	–
CCCOCCOCCOC(=O)C[n+]1ccn(C)c1 [KG42, 3-methyl-1-(2-[2-propoxyethoxy]ethoxycarbonylmethyl)imidazolium octylsulfate]	> 20	non-toxic	–	–
CCCOCCOCCOC(=O)Cn1cc[n+](C)c1.[Br-] [KG14, 3-methyl-1-(2-[2-propoxyethoxy]ethoxycarbonylmethyl)imidazolium bromide]	> 20	non-toxic	–	–
CCCCOC(=O)C[n+]1ccn(C)c1 [KG34, 3-methyl-1-(butoxycarbonylmethyl)imidazolium octylsulfate]	5	non-toxic	–	–
CCCCOCCOCCOC(=O)Cn1cc[n+](C)c1.[Br-] [KG15, 3-methyl-1-(2-[2-butoxyethoxy]ethoxycarbonylmethyl)imidazolium bromide]	> 20	non-toxic	–	low toxicity
